These results are taken from PMC12548400, “Urease promotes pH homeostasis and growth of Staphylococcus aureus in skin-like conditions” (Journal of Bacteriology, 2025).

One test deals with T1, jack bean urease (Canavalia ensiformis, UniProt P07374).
T1 construct: commercially purified jack bean urease
The experiment in a line: inhibition of purified urease; coupled glutamate dehydrogenase/NADH depletion assay at […] nm. Type of test: biochemical.

Test [1] concerns the target T2, S. aureus urease (Staphylococcus aureus, UniProt Q2FEK3).
T2 construct: gene ureC; native urease in cell-free lysates of S. aureus LAC (USA300); with UreA, UreB (urease subunits)
As to the kind of experiment: urease activity in cell-free lysate with […] urea; coupled glutamate dehydrogenase/NADH assay. Type of test: biochemical.

The target in test [2] is T3, S. aureus urease (Staphylococcus aureus, UniProt P67403).
T3 construct: gene ureC; native urease in cell lysates of S. aureus LAC (USA300); with UreA, UreB (urease subunits)
The experiment in a line: urea hydrolysis in lysates by coupled enzyme assay; activity lost in ureD::Tn mutant and restored by complementation. Type of test: cell-based.

T2 sequence (Q2FEK4 whole entry): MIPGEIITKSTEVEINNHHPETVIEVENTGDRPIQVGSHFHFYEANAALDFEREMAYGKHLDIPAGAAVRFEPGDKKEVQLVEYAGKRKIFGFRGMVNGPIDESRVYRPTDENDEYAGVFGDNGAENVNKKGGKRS
T2 sequence (Q2FEK3 whole entry): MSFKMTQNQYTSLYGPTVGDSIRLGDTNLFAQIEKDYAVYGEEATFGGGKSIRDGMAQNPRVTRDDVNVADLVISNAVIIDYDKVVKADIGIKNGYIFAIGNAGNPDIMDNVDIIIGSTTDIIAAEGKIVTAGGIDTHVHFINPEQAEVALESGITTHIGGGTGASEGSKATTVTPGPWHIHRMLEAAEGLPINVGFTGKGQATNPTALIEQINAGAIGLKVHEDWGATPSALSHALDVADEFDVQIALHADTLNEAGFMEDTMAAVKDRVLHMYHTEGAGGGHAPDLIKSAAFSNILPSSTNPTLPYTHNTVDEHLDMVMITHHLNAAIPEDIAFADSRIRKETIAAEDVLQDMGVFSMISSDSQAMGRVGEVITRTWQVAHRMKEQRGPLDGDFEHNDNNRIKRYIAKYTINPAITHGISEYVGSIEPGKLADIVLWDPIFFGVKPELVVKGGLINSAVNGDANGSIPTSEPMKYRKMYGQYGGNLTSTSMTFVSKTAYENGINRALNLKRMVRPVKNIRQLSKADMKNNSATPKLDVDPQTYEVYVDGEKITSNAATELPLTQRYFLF
T2 sequence (Q2FEK5 whole entry, further chain): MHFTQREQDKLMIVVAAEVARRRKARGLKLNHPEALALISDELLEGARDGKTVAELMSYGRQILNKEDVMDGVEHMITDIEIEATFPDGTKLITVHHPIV
T1 sequence (P07374 whole entry, looked up): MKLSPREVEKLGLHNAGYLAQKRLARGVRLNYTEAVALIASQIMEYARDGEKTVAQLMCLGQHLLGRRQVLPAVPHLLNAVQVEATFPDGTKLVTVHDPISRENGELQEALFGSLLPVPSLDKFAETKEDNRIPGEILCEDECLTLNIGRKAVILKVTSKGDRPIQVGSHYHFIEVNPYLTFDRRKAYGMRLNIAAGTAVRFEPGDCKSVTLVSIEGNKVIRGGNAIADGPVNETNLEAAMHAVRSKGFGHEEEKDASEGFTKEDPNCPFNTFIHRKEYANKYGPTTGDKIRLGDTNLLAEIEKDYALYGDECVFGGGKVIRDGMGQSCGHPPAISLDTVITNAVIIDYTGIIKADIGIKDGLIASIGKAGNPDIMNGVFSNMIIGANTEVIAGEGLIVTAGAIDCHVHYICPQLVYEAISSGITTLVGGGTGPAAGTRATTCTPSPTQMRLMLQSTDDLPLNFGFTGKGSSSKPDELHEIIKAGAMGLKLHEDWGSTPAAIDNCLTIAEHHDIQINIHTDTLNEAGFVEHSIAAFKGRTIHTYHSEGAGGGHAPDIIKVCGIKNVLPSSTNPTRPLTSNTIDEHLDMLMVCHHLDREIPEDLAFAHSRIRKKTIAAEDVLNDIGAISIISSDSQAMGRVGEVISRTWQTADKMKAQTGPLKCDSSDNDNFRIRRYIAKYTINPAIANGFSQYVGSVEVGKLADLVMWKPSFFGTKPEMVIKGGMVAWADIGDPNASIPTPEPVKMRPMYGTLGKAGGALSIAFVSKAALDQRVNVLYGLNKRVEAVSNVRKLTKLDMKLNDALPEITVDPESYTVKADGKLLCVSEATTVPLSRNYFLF
T3 sequence (P67403 whole entry): as the sequence (Q2FEK3 whole entry) above

As a reminder, the IC50 is the point on the concentration scale where inhibition reaches its midpoint. The low end stands for greater potency, the high end for weaker potency. For `NP(N)(=O)NC(=O)c1ccc(F)cc1` [FF, N-(diaminophosphinyl)-4-fluorobenzenamide], the concentration for half-maximal inhibition (IC50) was 0.131 µM on jack bean urease and 0.0342 µM against S. aureus urease [1]. In the case of `NC(N)=O` [urea], the “urea hydrolysis in lysates by coupled enzyme assay; activity lost in ureD::Tn mu” value on S. aureus urease [2] was “loss of urease activity in the mutant strain and reconstitution of activity in the complementation strain using a coupled enzyme assay”.
